Data published in patent US20230015308A1, “SUBSTITUTED THIAZOLE AROMATIC RING-BASED COMPOUND AND PREPARATION METHOD THEREFOR, HERBICIDAL COMPOSITION AND USE THEREOF” (QINGDAO KINGAGROOT CHEMICAL COMPOUND CO., LTD., priority 2019, published 2023).

Columns and labels:
Assay in all cases: Weeding effect in post-emergence stage (greenhouse pot test)
Type in all cases: in vivo
Settings in all cases: 15 g a.i./ha, 3 weeks after application
Echinochloa crusgalli = tested on: Echinochloa crusgalli
From the text: (§1) The activity level criteria for plant damage (i.e., growth control rate) are as follows:
(§2) Level 5: growth control rate is above 85%;
(§3) Level 4: growth control rate is greater than or equal to 60% and less than 85%;
(§4) Level 3: growth control rate is greater than or equal to 40% and less than 60%;
(§5) Level 2: growth control rate is greater than or equal to 20% and less than 40%;
(§6) Level 1: growth control rate is greater than or equal to 5% and less than 20%;
(§7) Level 0: growth control rate is less than 5%.
(§8) The above growth control rates are fresh weight control rates.
(§9) Experiment on weeding effect in post-emergence stage:
(§10) Monocotyledonous and dicotyledonous weed seeds (Descurainia sophia, Capsella bursa-pastoris, Abutilon theophrasti, Galium aparine, Stellaria media, Lithospermum arvense, Rorippa indica, Alopecurus aequalis, Alopecurus japonicus, Beckmannia syzigachne, Sclerochloa dura, Conyza Canadensis, Phleum paniculatum, Veronica didyma Tenore, Eleusine indica, Bromus japonicus, Aegilops tauschii, Phalaris arundinacea, Amaranthus retroflexus, Chenopodium album, Commelina communis, Sonchus arvensis, Convolvulus arvensis, Cirsium setosum, Solanum nigrum, Acalypha australis, Digitaria sanguinalis, Echinochloa crusgalli, Setaria viridis, Setaria glauca, Leptochloa chinensis, Monochoria vaginalis, Sagittaria trifolia, Scirpus juncoides, Cyperus rotundus, Cyperus iria, Cyperus difformis, Fimbristylis, Portulaca oleracea, Xanthium sibiricum, Pharbitis nil) and major crop seeds (wheat, corn, rice, soybean, cotton, oilseed rape, millet, sorghum, potato, sesame, ricinus) were placed in plastic pots filled with soil, then covered with 0.5-2 cm of soil, allowed to grow in a good greenhouse environment. After 2 weeks of sowing, the test plants were treated in the 2-3 leaf stage. The tested compounds of the present invention were respectively dissolved in acetone, then added with Tween 80 and 1.5 liter/ha of emulsifiable concentrate of methyl oleate as synergist, diluted with a certain amount of water to obtain a solution with a certain concentration, and sprayed with a spray tower onto the plants. After the application, the plants were cultured for 3 weeks in the greenhouse, and then the experimental results of the weeding were counted. The doses of the used compounds were 500, 250, 125, 60, 15 g a.i./ha, and the averages were obtained by repeating for three times.

Amaranthus retroflexus = tested on: Amaranthus retroflexus
From the text: as §1, §2, §3, §4, §5, §6, §7, §8, §9, §10

Veronica didyma Tenore = tested on: Veronica didyma Tenore
From the text: as §1, §2, §3, §4, §5, §6, §7, §8, §9, §10

Galium aparine = tested on: Galium aparine
From the text: as §1, §2, §3, §4, §5, §6, §7, §8, §9, §10

Setaria viridis = tested on: Setaria viridis
From the text: as §1, §2, §3, §4, §5, §6, §7, §8, §9, §10

Digitaria sanguinalis = tested on: Digitaria sanguinalis
From the text: as §1, §2, §3, §4, §5, §6, §7, §8, §9, §10

Abutilon theophrasti = tested on: Abutilon theophrasti
From the text: as §1, §2, §3, §4, §5, §6, §7, §8, §9, §10

Beckmannia syzigachne = tested on: Beckmannia syzigachne
From the text: as §1, §2, §3, §4, §5, §6, §7, §8, §9, §10

Alopecurus japonicus = tested on: Alopecurus japonicus
From the text: as §1, §2, §3, §4, §5, §6, §7, §8, §9, §10

Compound	Echinochloa crusgalli, activity level (fresh weight growth control rate) (Echinochloa crusgalli)	Amaranthus retroflexus, activity level (fresh weight growth control rate) (Amaranthus retroflexus)	Veronica didyma Tenore, activity level (fresh weight growth control rate) (Veronica didyma Tenore)	Galium aparine, activity level (fresh weight growth control rate) (Galium aparine)	Setaria viridis, activity level (fresh weight growth control rate) (Setaria viridis)	Digitaria sanguinalis, activity level (fresh weight growth control rate) (Digitaria sanguinalis)	Abutilon theophrasti, activity level (fresh weight growth control rate) (Abutilon theophrasti)	Beckmannia syzigachne, activity level (fresh weight growth control rate) (Beckmannia syzigachne)	Alopecurus japonicus, activity level (fresh weight growth control rate) (Alopecurus japonicus)
COC(=O)c1nc(-c2cc(-n3c(=O)cc(C(F)(F)F)n(C)c3=O)c(F)cc2Cl)cs1 [4-1]	4 (Level 4: growth control rate is greater than or equal to 60% and less than 85%)	5 (Level 5: growth control rate is above 85%)	5 (Level 5: growth control rate is above 85%)						
CCOC(=O)c1csc(-c2cc(-n3c(=O)n(C)c(=S)n(C)c3=O)c(F)cc2Cl)n1 [2-113]		5 (Level 5: growth control rate is above 85%)	5 (Level 5: growth control rate is above 85%)	5 (Level 5: growth control rate is above 85%)					
Cn1c(C(F)(F)F)cc(=O)n(-c2cc(-c3ncc(C(=O)OCc4ccccc4)s3)c(Cl)cc2F)c1=O [1-35]	4 (Level 4: growth control rate is greater than or equal to 60% and less than 85%)	5 (Level 5: growth control rate is above 85%)	5 (Level 5: growth control rate is above 85%)	5 (Level 5: growth control rate is above 85%)	5 (Level 5: growth control rate is above 85%)	3 (Level 3: growth control rate is greater than or equal to 40% and less than 60%)	5 (Level 5: growth control rate is above 85%)		
CCOC(=O)c1csc(-c2cc(-n3c(=O)cc(C(F)(F)F)n(C)c3=O)c(F)cc2Cl)n1 [2-2]		5 (Level 5: growth control rate is above 85%)	5 (Level 5: growth control rate is above 85%)	5 (Level 5: growth control rate is above 85%)		4 (Level 4: growth control rate is greater than or equal to 60% and less than 85%)	5 (Level 5: growth control rate is above 85%)		
CCOC(=O)c1cnc(-c2cc(-n3c(=O)n(C)c(=S)n(C)c3=O)c(F)cc2Cl)s1 [1-113]	5 (Level 5: growth control rate is above 85%)	5 (Level 5: growth control rate is above 85%)	5 (Level 5: growth control rate is above 85%)	5 (Level 5: growth control rate is above 85%)	5 (Level 5: growth control rate is above 85%)	4 (Level 4: growth control rate is greater than or equal to 60% and less than 85%)	5 (Level 5: growth control rate is above 85%)	4 (Level 4: growth control rate is greater than or equal to 60% and less than 85%)	4 (Level 4: growth control rate is greater than or equal to 60% and less than 85%)
COC(=O)C(C)OC(=O)c1cnc(-c2cc(-n3c(=O)cc(C(F)(F)F)n(C)c3=O)c(F)cc2Cl)s1 (centres unmarked) [1-48]	5 (Level 5: growth control rate is above 85%)	5 (Level 5: growth control rate is above 85%)	5 (Level 5: growth control rate is above 85%)	5 (Level 5: growth control rate is above 85%)	5 (Level 5: growth control rate is above 85%)	4 (Level 4: growth control rate is greater than or equal to 60% and less than 85%)	5 (Level 5: growth control rate is above 85%)		
CCOC(=O)c1cnc(-c2nc(-n3c(=O)n(C)c(=S)n(C)c3=O)c(F)cc2Cl)s1 [1-123]	5 (Level 5: growth control rate is above 85%)	5 (Level 5: growth control rate is above 85%)	5 (Level 5: growth control rate is above 85%)	5 (Level 5: growth control rate is above 85%)	5 (Level 5: growth control rate is above 85%)	5 (Level 5: growth control rate is above 85%)	5 (Level 5: growth control rate is above 85%)	5 (Level 5: growth control rate is above 85%)	5 (Level 5: growth control rate is above 85%)
CCOC(=O)c1cnc(-c2cc(-n3c(=O)cc(C(F)(F)F)n(C)c3=O)c(F)cc2Cl)s1 [1-2]	5 (Level 5: growth control rate is above 85%)	5 (Level 5: growth control rate is above 85%)	5 (Level 5: growth control rate is above 85%)	5 (Level 5: growth control rate is above 85%)	5 (Level 5: growth control rate is above 85%)	5 (Level 5: growth control rate is above 85%)	5 (Level 5: growth control rate is above 85%)	4 (Level 4: growth control rate is greater than or equal to 60% and less than 85%)	4 (Level 4: growth control rate is greater than or equal to 60% and less than 85%)
COC(=O)c1nc(-c2cc(-n3c(=O)n(C)c(=S)n(C)c3=O)c(F)cc2Cl)cs1 [4-158]		5 (Level 5: growth control rate is above 85%)	5 (Level 5: growth control rate is above 85%)	5 (Level 5: growth control rate is above 85%)					
CCOC(=O)c1cnc(-c2cc(-n3c(=S)cc(C(F)(F)F)n(C)c3=O)c(F)cc2Cl)s1 [1-103]	5 (Level 5: growth control rate is above 85%)	5 (Level 5: growth control rate is above 85%)	5 (Level 5: growth control rate is above 85%)	5 (Level 5: growth control rate is above 85%)	5 (Level 5: growth control rate is above 85%)	5 (Level 5: growth control rate is above 85%)	5 (Level 5: growth control rate is above 85%)	4 (Level 4: growth control rate is greater than or equal to 60% and less than 85%)	4 (Level 4: growth control rate is greater than or equal to 60% and less than 85%)
CC(C)=NOC(=O)c1cnc(-c2cc(-n3c(=O)cc(C(F)(F)F)n(C)c3=O)c(F)cc2Cl)s1 [1-55]	5 (Level 5: growth control rate is above 85%)	5 (Level 5: growth control rate is above 85%)	5 (Level 5: growth control rate is above 85%)	5 (Level 5: growth control rate is above 85%)	5 (Level 5: growth control rate is above 85%)	5 (Level 5: growth control rate is above 85%)	5 (Level 5: growth control rate is above 85%)		
